Patent publication US11040962B2, “Pesticidally active pyrazole derivatives” (SYNGENTA PARTICIPATIONS AG, priority 2017, dated 2021)

Legend:
Type in all cases: in vivo
[1] = tested on: Spodoptera littoralis; experiment: Spodoptera littoralis (Egyptian cotton leaf worm) cotton leaf disc spray test; settings: foliar, 72 h, application rate 200 ppm, L1 larvae, 3 days after infestation, vs untreated, read-out: control (at least one of mortality, anti-feedant effect, growth inhibition)
Procedure: Spodoptera littoralis (Egyptian Cotton Leaf Worm)
Cotton leaf discs were placed on agar in 24-well microtiter plates and sprayed with aqueous test solutions prepared from 10′000 ppm DMSO stock solutions. After drying the leaf discs were infested with five L1 larvae. The samples were assessed for mortality, anti-feedant effect, and growth inhibition in comparison to untreated samples 3 days after infestation. Control of Spodoptera littoralis by a test sample is when at least one of mortality, anti-feedant effect, and growth inhibition is higher than the untreated sample.

[2] = tested on: Plutella xylostella; experiment: Plutella xylostella (diamond back moth) artificial diet test; settings: 120 h, application rate 200 ppm, L2 larvae, 5 days after infestation, vs untreated, read-out: effect in at least one of the two categories (mortality or growth inhibition)
Procedure: Plutella xylostella (Diamond Back Moth):
24-well microtiter plates with artificial diet were treated with aqueous test solutions prepared from 10′000 ppm DMSO stock solutions by pipetting. After drying, the plates were infested with L2 larvae (10 to 15 per well). The samples were assessed for mortality and growth inhibition in comparison to untreated samples 5 days after infestation. The following compounds gave an effect of at least 80% in at least one of the two categories (mortality or growth inhibition) at an application rate of 200 ppm: 1, 2, 3, 4, 7, 8, 9, 10, 11, 12, 13, 14, 15, 16, 17, 18, 19, 20, 21, 22, 23, 24, 26, 27, 28 and 29.

[3] = tested on: Diabrotica balteata; experiment: Diabrotica balteata (corn root worm) maize sprout spray test; settings: 96 h, application rate 200 ppm, L2 larvae, 4 days after infestation, vs untreated, read-out: effect in at least one of the two categories (mortality or growth inhibition)
Procedure: Diabrotica balteata, (Corn Root Worm)
Maize sprouts, placed on an agar layer in 24-well microtiter plates were treated with aqueous test solutions prepared from 10′000 ppm DMSO stock solutions by spraying. After drying, the plates were infested with L2 larvae (6 to 10 per well). The samples were assessed for mortality and growth inhibition in comparison to untreated samples 4 days after infestation. The following compounds gave an effect of at least 80% in at least one of the two categories (mortality or growth inhibition) at an application rate of 200 ppm: 1, 2, 3, 4, 7, 8, 9, 11, 12, 13, 14, 15, 16, 17, 18, 19, 20, 21, 27, 28 and 29.

[4] = tested on: Thrips tabaci; experiment: Thrips tabaci (onion thrips) sunflower leaf disc spray test; settings: foliar, 144 h, application rate 200 ppm, population of mixed ages, 6 days after infestation
Procedure: Thrips tabaci (Onion Thrips):
Sunflower leaf discs were placed on agar in 24-well microtiter plates and sprayed with aqueous test solutions prepared from 10′000 ppm DMSO stock solutions. After drying the leaf discs were infested with a Thrips population of mixed ages. The samples were assessed for mortality 6 days after infestation.

[5] = tested on: Tetranychus urticae; experiment: Tetranychus urticae (two-spotted spider mite) bean leaf disc spray test; settings: foliar, 192 h, application rate 200 ppm, 8 days after infestation, read-out: mortality on mixed population (mobile stages)
Procedure: Tetranychus urticae (Two-Spotted Spider Mite):
Bean leaf discs on agar in 24-well microtiter plates were sprayed with aqueous test solutions prepared from 10′000 ppm DMSO stock solutions. After drying the leaf discs were infested with a mite population of mixed ages. The samples were assessed for mortality on mixed population (mobile stages) 8 days after infestation.

[6] = tested on: Euschistus heros; experiment: Euschistus heros (neotropical brown stink bug) soybean leaf spray test; settings: 120 h, application rate 200 ppm, N2 nymphs, 5 days after infestation, vs untreated, read-out: effect in at least one of the two categories (mortality or growth inhibition)
Procedure: Euschistus heros (Neotropical Brown Stink Bug)
Soybean leaves on agar in 24-well microtiter plates were sprayed with aqueous test solutions prepared from 10′000 ppm DMSO stock solutions. After drying the leaves were infested with N2 nymphs. The samples were assessed for mortality and growth inhibition in comparison to untreated samples 5 days after infestation. The following compounds gave an effect of at least 80% in at least one of the two categories (mortality or growth inhibition) at an application rate of 200 ppm: 1, 2, 3, 7, 8, 9, 12, 13, 14, 15, 17, 18, 21, 25, 26, 27, 28 and 29.

Cn1nc(C(F)(F)C(F)(F)F)c(C(F)(F)F)c1-n1cc(-c2cc(C(=O)NC3CC3)c(C#N)s2)nn1 [Compound 1, 2-cyano-N-cyclopropyl-5-[1-[2-methyl-5-(1,1,2,2,2-pentafluoroethyl)-4-(trifluoromethyl)pyrazol-3-yl]triazol-4-yl]thiophene-3-carboxamide]
≥ 80%: percent control (mortality, anti-feedant effect or growth inhibition) at 200 ppm [1] | percent effect (mortality or growth inhibition) at 200 ppm [2] | percent effect (mortality or growth inhibition) at 200 ppm [3] | mortality at 200 ppm [4] | mortality at 200 ppm [5] | percent effect (mortality or growth inhibition) at 200 ppm [6]

CN(C(=O)c1cc(-c2cn(-c3c(C(F)(F)F)c(C(F)(F)C(F)(F)F)nn3C)nn2)sc1C#N)C1CC1 [Compound 2, 2-cyano-N-cyclopropyl-N-methyl-5-[1-[2-methyl-5-(1,1,2,2,2-pentafluoroethyl)-4-(trifluoromethyl)pyrazol-3-yl]triazol-4-yl]thiophene-3-carboxamide]
≥ 80%: percent control (mortality, anti-feedant effect or growth inhibition) at 200 ppm [1] | percent effect (mortality or growth inhibition) at 200 ppm [2] | percent effect (mortality or growth inhibition) at 200 ppm [3] | mortality at 200 ppm [4] | mortality at 200 ppm [5] | percent effect (mortality or growth inhibition) at 200 ppm [6]

CCN(C(=O)c1cc(-c2cn(-c3c(C(F)(F)F)c(C(F)(F)C(F)(F)F)nn3C)nn2)sc1C#N)C1CC1 [Compound 3, 2-cyano-N-cyclopropyl-N-ethyl-5-[1-[2-methyl-5-(1,1,2,2,2-pentafluoroethyl)-4-(trifluoromethyl)pyrazol-3-yl]triazol-4-yl]thiophene-3-carboxamide]
≥ 80%: percent control (mortality, anti-feedant effect or growth inhibition) at 200 ppm [1] | percent effect (mortality or growth inhibition) at 200 ppm [2] | percent effect (mortality or growth inhibition) at 200 ppm [3] | mortality at 200 ppm [4] | mortality at 200 ppm [5] | percent effect (mortality or growth inhibition) at 200 ppm [6]

Cn1nc(C(F)(F)C(F)(F)F)c(C(F)(F)F)c1-n1cc(-c2cc(C(=O)NC3(C#N)CC3)c(C#N)s2)nn1 [Compound 4, 2-cyano-N-(1-cyanocyclopropyl)-5-[1-[2-methyl-5-(1,1,2,2,2-pentafluoroethyl)-4-(trifluoromethyl)pyrazol-3-yl]triazol-4-yl]thiophene-3-carboxamide]
≥ 80%: percent control (mortality, anti-feedant effect or growth inhibition) at 200 ppm [1] | percent effect (mortality or growth inhibition) at 200 ppm [2] | percent effect (mortality or growth inhibition) at 200 ppm [3] | mortality at 200 ppm [4] | mortality at 200 ppm [5]

Cn1nc(C(F)(F)C(F)(F)F)c(C(F)(F)F)c1-n1cc(-c2cc(C(=O)NC3CC3)c(Cl)s2)nn1 [Compound 7, 2-chloro-N-cyclopropyl-5-[1-[2-methyl-5-(1,1,2,2,2-pentafluoroethyl)-4-(trifluoromethyl)pyrazol-3-yl]triazol-4-yl]thiophene-3-carboxamide]
≥ 80%: percent control (mortality, anti-feedant effect or growth inhibition) at 200 ppm [1] | percent effect (mortality or growth inhibition) at 200 ppm [2] | percent effect (mortality or growth inhibition) at 200 ppm [3] | mortality at 200 ppm [4] | mortality at 200 ppm [5] | percent effect (mortality or growth inhibition) at 200 ppm [6]

CCN(C(=O)c1cc(-c2cn(-c3c(C(F)(F)F)c(C(F)(F)C(F)(F)F)nn3C)nn2)sc1Cl)C1(C#N)CC1 [Compound 12, 2-chloro-N-(1-cyanocyclopropyl)-N-ethyl-5-[1-[2-methyl-5-(1,1,2,2,2-pentafluoroethyl)-4-(trifluoromethyl)pyrazol-3-yl]triazol-4-yl]thiophene-3-carboxamide]
≥ 80%: percent control (mortality, anti-feedant effect or growth inhibition) at 200 ppm [1] | percent effect (mortality or growth inhibition) at 200 ppm [2] | percent effect (mortality or growth inhibition) at 200 ppm [3] | mortality at 200 ppm [4] | percent effect (mortality or growth inhibition) at 200 ppm [6]

Cn1nc(C(F)(F)C(F)(F)F)c(C(F)(F)F)c1-c1cc(-c2cc(C(=O)NC3CC3)c(C#N)s2)on1 [Compound 13, 2-cyano-N-cyclopropyl-5-[3-[2-methyl-5-(1,1,2,2,2-pentafluoroethyl)-4-(trifluoromethyl)pyrazol-3-yl]isoxazol-5-yl]thiophene-3-carboxamide]
≥ 80%: percent control (mortality, anti-feedant effect or growth inhibition) at 200 ppm [1] | percent effect (mortality or growth inhibition) at 200 ppm [2] | percent effect (mortality or growth inhibition) at 200 ppm [3] | mortality at 200 ppm [4] | mortality at 200 ppm [5] | percent effect (mortality or growth inhibition) at 200 ppm [6]

Cn1nc(C(F)(F)C(F)(F)F)c(C(F)(F)F)c1-c1cc(-c2cc(C(=O)NC3(C#N)CC3)c(C#N)s2)on1 [Compound 16, 2-cyano-N-(1-cyanocyclopropyl)-5-[3-[2-methyl-5-(1,1,2,2,2-pentafluoroethyl)-4-(trifluoromethyl)pyrazol-3-yl]isoxazol-5-yl]thiophene-3-carboxamide]
≥ 80%: percent control (mortality, anti-feedant effect or growth inhibition) at 200 ppm [1] | percent effect (mortality or growth inhibition) at 200 ppm [2] | percent effect (mortality or growth inhibition) at 200 ppm [3] | mortality at 200 ppm [4] | mortality at 200 ppm [5]

CCN(C(=O)c1cc(-c2cc(-c3c(C(F)(F)F)c(C(F)(F)C(F)(F)F)nn3C)no2)sc1C#N)C1(C#N)CC1 [Compound 18, 2-cyano-N-(1-cyanocyclopropyl)-N-ethyl-5-[3-[2-methyl-5-(1,1,2,2,2-pentafluoroethyl)-4-(trifluoromethyl)pyrazol-3-yl]isoxazol-5-yl]thiophene-3-carboxamide]
≥ 80%: percent control (mortality, anti-feedant effect or growth inhibition) at 200 ppm [1] | percent effect (mortality or growth inhibition) at 200 ppm [2] | percent effect (mortality or growth inhibition) at 200 ppm [3] | mortality at 200 ppm [4] | percent effect (mortality or growth inhibition) at 200 ppm [6]

CCN(C(=O)c1cc(-c2cc(-c3c(C(F)(F)F)c(C(F)(F)C(F)(F)F)nn3C)no2)sc1Cl)C1CC1 [Compound 21, 2-chloro-N-cyclopropyl-N-ethyl-5-[3-[2-methyl-5-(1,1,2,2,2-pentafluoroethyl)-4-(trifluoromethyl)pyrazol-3-yl]isoxazol-5-yl]thiophene-3-carboxamide]
≥ 80%: percent control (mortality, anti-feedant effect or growth inhibition) at 200 ppm [1] | percent effect (mortality or growth inhibition) at 200 ppm [2] | percent effect (mortality or growth inhibition) at 200 ppm [3] | percent effect (mortality or growth inhibition) at 200 ppm [6]

Cn1nc(C(F)(F)C(F)(F)F)c(C(F)(F)F)c1-c1cc(-c2cc(C(=O)NC3CC3)c(C#N)s2)cs1 [Compound 25, 2-cyano-N-cyclopropyl-5-[5-[2-methyl-5-(1,1,2,2,2-pentafluoroethyl)-4-(trifluoromethyl)pyrazol-3-yl]-3-thienyl]thiophene-3-carboxamide]
≥ 80%: mortality at 200 ppm [5] | percent effect (mortality or growth inhibition) at 200 ppm [6]
